In US20080171794A1, “HUMECTANT COMPOSITION” (TAKASAGO INTERNATIONAL CORPORATION, priority 2007, published 2008):

Tested on: inside of the forearm
Assay: Skin conductance with time after water supply to the site treated with emollient milk
Type: in vivo, human
Details: conclusion from Tables 5 and 6; conductance on forearm after water supply
Procedure: Each of the emollient milks described in Table 3 was applied to the inside of the forearm in the same manner in Test Example 2, and dried for 30 minutes. A drop of distilled water was placed on that site to conduct water supply for 10 seconds, followed by wiping off. Then, the conductance values were measured with time for 15 minutes (n=3).
Process: Emollient milks having the same components as described in Table 3 with the exception that 3-(menthoxy)propane-1,2-diol was substituted by p-menthane-3,8-diol were prepared (Example 3 and Comparative Example 3). Each was applied to the inside of the forearm in an amount of 65 mg/cm^2, and evaluated in the same manner as in Test Example 3.

## CC1CCC(C(C)(C)O)C(O)C1 (stereo not shown) [p-menthane-3,8-diol]
  water-retention function (in words): excellent water-retention function
